Values of other authors as cited in patent US20050053970A1, “Methods and compositions for identifying peptide aptamers capable of altering a cell phenotype” (priority 2001, published 2005).

Tests used:
mammals = details: in vivo
[1] = molecular target: α/δ and α/γ sites in T. californica electric organ (Tetronarce californica, UniProt P02710+P02714+P02718)
[2] = molecular target: T1, mutant human growth hormone (Thr175 Gly-hGH) and extracellular domain of the hGH receptor (Trp104 Gly-hGHbp) (Homo sapiens, UniProt P01241+P10912, T201G/W122G); details: Thr175 Gly-hGH with Trp104 Gly-hGHbp
T1 construct: the extracellular domain of the hGH receptor (Trp104 Gly-hGHbp)

| Compound | effect in mammals (mammals) | activity in T. californica [1] | discrimination between the α/δ and α/γ sites [1] | increase of the affinity of the mutant hormone for its receptor [2] |
| --- | --- | --- | --- | --- |
| ICCNPACGPLYSC-NH2 [α-conotoxin SI] | essentially no effect | active | does not distinguish | – |
| ECCNPACGRHYSC-NH2 [α-conotoxin GI] | lethal to mammals at low concentrations | – | finds the α/δ site preferable to the α/γ site | – |
| Clc1cnc(C(Cl)(Cl)Cl)[nH]1 [5-chloro-2-trichloromethylimidazole] | – | – | – | more than 1000 fold |
